Data from paper PMC9699427 (Viruses, 2022).

Experiments:
CYP3A4M = CYP3A4M (Homo sapiens, UniProt P08684); assay: Cytochrome P450 inhibition, human liver microsomes, midazolam
[1] = Cytotoxicity, MTT assay, PBMCs; assay type: cell-based; conditions: human, PBMC, seven days, read-out: CC50 (Mean ± SD)
HIV-1IIIB [2] = assay: Anti-HIV-1 activity, syncytia (CPE) count in C8166 cells; assay type: cell-based; conditions: Human immunodeficiency virus 1
CYP2D6 = CYP2D6 (Homo sapiens, UniProt P10635); assay: Cytochrome P450 inhibition, human liver microsomes, dextromethorphan
CYP1A2 = target: T1, CYP1A2 (Homo sapiens, UniProt P05177); assay: Cytochrome P450 inhibition, human liver microsomes, phenacetin
T1 sequence (P05177 1-516): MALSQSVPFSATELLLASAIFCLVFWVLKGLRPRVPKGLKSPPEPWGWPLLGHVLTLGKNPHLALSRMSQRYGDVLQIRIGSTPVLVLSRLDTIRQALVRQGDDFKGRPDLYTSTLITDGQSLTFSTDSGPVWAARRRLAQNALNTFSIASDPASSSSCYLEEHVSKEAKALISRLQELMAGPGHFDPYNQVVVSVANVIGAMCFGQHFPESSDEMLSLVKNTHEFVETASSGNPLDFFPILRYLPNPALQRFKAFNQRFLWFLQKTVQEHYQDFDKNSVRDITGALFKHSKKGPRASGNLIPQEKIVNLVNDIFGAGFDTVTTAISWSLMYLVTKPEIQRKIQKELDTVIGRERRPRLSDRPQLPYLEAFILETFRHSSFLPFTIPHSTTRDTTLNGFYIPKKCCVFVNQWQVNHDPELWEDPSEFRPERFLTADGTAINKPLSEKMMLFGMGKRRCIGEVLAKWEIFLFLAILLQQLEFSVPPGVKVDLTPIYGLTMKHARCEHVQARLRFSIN

CYP2C19 = CYP2C19 (Homo sapiens, UniProt P33261); assay: Cytochrome P450 inhibition, human liver microsomes, S-mephenytoin
[3] = Cytotoxicity, MTT assay, C8166 cells; assay type: cell-based; conditions: human, three days, read-out: CC50 (Mean ± SD)
CYP2C9 = CYP2C9 (Homo sapiens, UniProt P11712); assay: Cytochrome P450 inhibition, human liver microsomes, diclofenac
[4] = Cytotoxicity, MTT assay, H9/HIV-1IIIB cells; assay type: cell-based; conditions: human, three days, read-out: CC50 (Mean ± SD)
[5] = Acute toxicity, single intragastric dose; assay type: in vivo; conditions: male and female BALB/C mice
[6] = system: HIV-1IIIB chronically infected H9 cells; assay: HIV-1 replication in chronically infected H9/HIV-1IIIB cells, p24; assay type: cell-based
HIV-1Yu-2(G140S/Q148H) = assay: microbe, parasite or virus in culture; assay type: cell-based; conditions: Human immunodeficiency virus 1, TZM-bl
HIV-1IIIB [7] = assay: Anti-HIV-1 activity, MTT protection of MT-4 cells; assay type: cell-based; conditions: Human immunodeficiency virus 1, MT4, MT-4, MTT
[8] = Cytotoxicity, MTT assay, MT-4 cells; assay type: cell-based; conditions: human, three days, read-out: CC50 (Mean ± SD)
[9] = system: C8166 cells infected with HIV-1IIIB or TZM-bl cells infected with HIV-1YU-2; assay: Combination antiviral activity assay (CompuSyn CI and DRI); assay type: cell-based
HIV-1IIIB [10] = assay: Anti-HIV-1 activity in the presence of human serum, p24 in C8166; conditions: Human immunodeficiency virus 1, C8166, HIV-1IIIB
[11] = single drug in combination K-5a2+3TC
[12] = single drug in combination K-5a2+AZT
[13] = single drug in combination K-5a2+DC521022
[14] = single drug in combination K-5a2+DRV
[15] = single drug in combination K-5a2+DTG
[16] = single drug in combination K-5a2+ETR
[17] = single drug in combination K-5a2+FTC
[18] = single drug in combination K-5a2+MVC
[19] = single drug in combination K-5a2+RAL
[20] = single drug in combination K-5a2+T-20
[21] = single drug in combination K-5a2+TDF

CYP3A4M, sequence (P08684 whole entry): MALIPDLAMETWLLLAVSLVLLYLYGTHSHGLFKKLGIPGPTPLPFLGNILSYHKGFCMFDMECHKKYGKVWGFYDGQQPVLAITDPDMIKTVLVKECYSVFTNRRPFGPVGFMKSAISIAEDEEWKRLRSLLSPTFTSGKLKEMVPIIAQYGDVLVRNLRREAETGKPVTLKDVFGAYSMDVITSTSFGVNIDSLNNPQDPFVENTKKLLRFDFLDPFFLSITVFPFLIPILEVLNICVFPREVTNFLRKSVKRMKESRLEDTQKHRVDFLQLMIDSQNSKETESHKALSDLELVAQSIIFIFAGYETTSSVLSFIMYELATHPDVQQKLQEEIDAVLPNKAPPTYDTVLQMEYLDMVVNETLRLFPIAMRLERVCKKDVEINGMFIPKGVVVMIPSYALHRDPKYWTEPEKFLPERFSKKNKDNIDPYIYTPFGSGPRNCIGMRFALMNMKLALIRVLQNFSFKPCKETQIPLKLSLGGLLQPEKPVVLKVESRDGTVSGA
CYP2C9, sequence (P11712 whole entry): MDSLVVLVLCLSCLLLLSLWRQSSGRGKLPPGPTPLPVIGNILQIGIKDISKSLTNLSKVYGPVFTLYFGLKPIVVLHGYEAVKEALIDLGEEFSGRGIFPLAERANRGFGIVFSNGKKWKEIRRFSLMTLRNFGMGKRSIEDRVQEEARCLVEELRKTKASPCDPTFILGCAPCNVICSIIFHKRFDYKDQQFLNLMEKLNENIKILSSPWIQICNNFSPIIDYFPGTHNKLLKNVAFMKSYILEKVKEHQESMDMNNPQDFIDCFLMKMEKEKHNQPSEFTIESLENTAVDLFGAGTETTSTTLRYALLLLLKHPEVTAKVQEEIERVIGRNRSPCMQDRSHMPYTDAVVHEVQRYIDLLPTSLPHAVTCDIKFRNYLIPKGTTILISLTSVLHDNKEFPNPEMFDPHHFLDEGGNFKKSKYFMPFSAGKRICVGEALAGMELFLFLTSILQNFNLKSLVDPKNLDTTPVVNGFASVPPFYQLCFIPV
CYP2C19, sequence (P33261 whole entry): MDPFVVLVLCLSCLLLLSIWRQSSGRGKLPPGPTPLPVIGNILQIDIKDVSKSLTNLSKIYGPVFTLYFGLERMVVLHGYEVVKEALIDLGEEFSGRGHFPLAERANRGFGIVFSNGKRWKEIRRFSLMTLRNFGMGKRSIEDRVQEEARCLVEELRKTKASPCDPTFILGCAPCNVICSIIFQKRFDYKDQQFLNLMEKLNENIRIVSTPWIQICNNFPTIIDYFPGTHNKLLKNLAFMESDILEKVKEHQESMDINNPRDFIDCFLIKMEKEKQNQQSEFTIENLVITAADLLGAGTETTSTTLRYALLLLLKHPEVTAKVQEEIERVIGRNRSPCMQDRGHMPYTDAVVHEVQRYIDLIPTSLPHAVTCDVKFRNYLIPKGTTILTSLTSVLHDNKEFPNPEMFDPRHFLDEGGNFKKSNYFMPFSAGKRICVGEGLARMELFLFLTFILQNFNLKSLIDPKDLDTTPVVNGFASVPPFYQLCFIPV
CYP2D6, sequence (P10635 whole entry): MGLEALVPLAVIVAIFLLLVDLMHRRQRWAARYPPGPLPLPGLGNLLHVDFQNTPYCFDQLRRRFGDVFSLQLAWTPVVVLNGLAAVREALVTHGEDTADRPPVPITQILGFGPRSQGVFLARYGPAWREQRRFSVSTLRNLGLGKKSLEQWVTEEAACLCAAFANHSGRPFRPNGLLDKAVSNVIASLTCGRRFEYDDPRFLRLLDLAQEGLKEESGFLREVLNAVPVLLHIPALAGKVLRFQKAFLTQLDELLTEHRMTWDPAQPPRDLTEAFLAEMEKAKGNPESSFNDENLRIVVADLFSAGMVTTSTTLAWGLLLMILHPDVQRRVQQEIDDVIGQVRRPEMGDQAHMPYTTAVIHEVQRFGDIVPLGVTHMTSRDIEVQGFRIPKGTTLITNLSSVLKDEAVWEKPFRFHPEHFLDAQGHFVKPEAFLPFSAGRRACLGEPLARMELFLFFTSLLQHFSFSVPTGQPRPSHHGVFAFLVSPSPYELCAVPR

Cc1cc(C#N)cc(C)c1Oc1nc(NC2CCN(Cc3ccc(S(N)(=O)=O)cc3)CC2)nc2ccsc12 [K-5a2]
IC50 (CYP3A4M): 18.9 µM
CC50 at 7 days [1]: 39.7 ± 6.29 µM
EC50 (HIV-1IIIB [2]): 0.00188 ± 0.00087 µM
IC50 (CYP2D6): > 50 µM
IC50 (CYP1A2): > 50 µM
IC50 (CYP2C19): > 50 µM
CC50 at 3 days [3]: > 50 µM
IC50 (CYP2C9): > 50 µM
CC50 at 3 days [4]: 28.1 ± 5.03 µM
MTD ([5]; both, mouse, in vivo, po, 5000 mg/kg, single gavage dose, read-out: Maximum tolerated dose): > 5000 mg/kg
Clinical symptoms and body weight ([5]; single gavage dose of 5000 mg/kg): no obvious clinical symptoms and no obvious abnormalities in body weight
EC50 ([6]; Human immunodeficiency virus 1, HIV-1IIIB, H9/HIV-1IIIB chronically infected, p24): > 50 µM
Inhibition of HIV-1 replication in HIV-1IIIB chronically infected H9 cells ([6]; at a concentration of 50.00 µM): could not inhibit the replication
EC50 (HIV-1Yu-2(G140S/Q148H)): 0.00026 ± 0.00028 µM
EC50 (HIV-1IIIB [7]): 0.00174 ± 0.00011 µM
CC50 at 3 days [8]: 26.6 ± 2.03 µM
DRI Value ED75 [9, 11]: 2.79 ± 0.14
DRI Value ED90 [9, 11]: 2.81 ± 0.58
DRI Value ED95 [9, 11]: 2.85 ± 0.93
DRI Value ED75 [9, 12]: 13.26 ± 9.86
DRI Value ED90 [9, 12]: 7.60 ± 3.58
DRI Value ED95 [9, 12]: 5.48 ± 2.08
DRI Value ED75 [9, 13]: 1.61 ± 0.50
DRI Value ED90 [9, 13]: 1.71 ± 0.48
DRI Value ED95 [9, 13]: 1.78 ± 0.47
DRI Value ED75 [9, 14]: 2.26 ± 0.28
DRI Value ED90 [9, 14]: 2.57 ± 0.19
DRI Value ED95 [9, 14]: 2.85 ± 0.57
DRI Value ED75 [9, 15]: 1.69 ± 0.37
DRI Value ED90 [9, 15]: 1.94 ± 0.10
DRI Value ED95 [9, 15]: 2.19 ± 0.50
DRI Value ED75 [9, 16]: 1.47 ± 0.24
DRI Value ED90 [9, 16]: 1.40 ± 0.12
DRI Value ED95 [9, 16]: 1.35 ± 0.07
DRI Value ED75 [9, 17]: 5.00 ± 0.71
DRI Value ED90 [9, 17]: 3.58 ± 0.51
DRI Value ED95 [9, 17]: 2.85 ± 0.41
DRI Value ED75 [9, 18]: 1.30 ± 0.17
DRI Value ED90 [9, 18]: 1.28 ± 0.15
DRI Value ED95 [9, 18]: 1.27 ± 0.15
DRI Value ED75 [9, 19]: 2.45 ± 0.95
DRI Value ED90 [9, 19]: 2.47 ± 0.85
DRI Value ED95 [9, 19]: 2.49 ± 0.79
DRI Value ED75 [9, 20]: 5.13 ± 0.38
DRI Value ED90 [9, 20]: 4.68 ± 0.43
DRI Value ED95 [9, 20]: 4.43 ± 0.75
DRI Value ED75 [9, 21]: 2.30 ± 0.73
DRI Value ED90 [9, 21]: 2.15 ± 0.47
DRI Value ED95 [9, 21]: 2.06 ± 0.33
EC50 (HIV-1IIIB [10]; C8166, p24, 20% human serum): 0.00783 ± 0.00173 µM
EC50 (HIV-1IIIB [10]; C8166, p24, 40% human serum): 0.00787 ± 0.00601 µM
